Measured values taken from patent US8791123B2, “Substituted pyrazolo[1,5-a]pyrimidine compounds as Trk kinase inhibitors” (Array Biopharma, Inc., priority 2009, dated 2014).
Where two headings read alike, the source gives them in different places.

Experiments:
Human Jak2 kinase domain = Human Jak2 kinase domain (Homo sapiens (Human), UniProt O60674); test: Jak2 Inhibition Assay (Omnia kinase assay); format: biochemical; settings: read-out: Jak2 Enzyme IC50
[1] = biological target: TrkA (histidine-tagged recombinant human TrkA, cytoplasmic domain) (Homo sapiens (Human), UniProt P04629); test: TrkA ELISA Assay; format: biochemical; settings: Table 1; ELISA, 500 μM ATP; read-out: TrkA Enzyme IC50
TrkA (histidine-tagged recombinant human TrkA, cytoplasmic domain), sequence (P04629 440-796): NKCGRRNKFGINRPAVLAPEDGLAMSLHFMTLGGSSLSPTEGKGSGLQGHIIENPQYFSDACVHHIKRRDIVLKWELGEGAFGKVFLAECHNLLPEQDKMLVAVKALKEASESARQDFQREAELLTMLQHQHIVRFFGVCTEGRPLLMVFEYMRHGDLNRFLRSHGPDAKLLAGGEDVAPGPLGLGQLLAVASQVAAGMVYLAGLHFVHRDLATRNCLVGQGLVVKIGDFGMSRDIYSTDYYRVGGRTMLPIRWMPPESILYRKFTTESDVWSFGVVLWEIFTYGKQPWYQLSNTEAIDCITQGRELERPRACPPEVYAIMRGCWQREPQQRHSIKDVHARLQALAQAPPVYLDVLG
How it was run: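 His-tagged human TrkA cytoplasmic domain phosphorylated poly(Glu,Ala,Tyr 6:3:1) coated at 0.025 mg/mL, with inhibitors present. Phosphotyrosine was detected with HRP-conjugated PY20 antibody (0.2 μg/mL) and TMB, read as absorbance at 450 nm after phosphoric acid stop.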

[2] = Table 1, 500 μM ATP, >1000 nM when >50% inhibition not observed at 1000 nM

Human Jak2 kinase domain, sequence (O60674 808-1132): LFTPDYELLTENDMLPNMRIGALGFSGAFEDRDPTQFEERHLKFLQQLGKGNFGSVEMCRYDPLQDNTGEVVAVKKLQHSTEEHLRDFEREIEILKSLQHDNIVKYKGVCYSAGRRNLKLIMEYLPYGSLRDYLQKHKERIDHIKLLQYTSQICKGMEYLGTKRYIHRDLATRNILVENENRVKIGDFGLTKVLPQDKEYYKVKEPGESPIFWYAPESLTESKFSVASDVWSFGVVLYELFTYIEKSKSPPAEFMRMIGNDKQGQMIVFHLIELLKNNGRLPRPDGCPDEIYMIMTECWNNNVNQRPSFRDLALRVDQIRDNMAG

SMILES | IC50 (Human Jak2 kinase domain; [2]) [nM] | IC50 [1] [nM] | IC50 (Human Jak2 kinase domain) [nM]
CC(C)(C)NC(=O)c1cnn2ccc(N3CCC[C@@H]3c3cc(F)c[nH]c3=O)nc12 [Example 202, (R)—N-tert-butyl-5-(2-(5-fluoro-2-oxo-1,2-dihydropyridin-3-yl)pyrrolidin-1-yl)pyrazolo[1,5-a]pyrimidine-3-carboxamide] | > 1000 | 19.3 | 
O=C(N[C@H]1CCC[C@@H]1O)c1cnn2ccc(N3CCC[C@@H]3c3cncc(F)c3)nc12 [Example 103, 5-((R)-2-(5-fluoropyridin-3-yl)pyrrolidin-1-yl)-N-((1S,2S)-2-hydroxycyclopentyl)pyrazolo[1,5-a]pyrimidine-3-carboxamide] | > 1000 | 87.8 | 
CC(C)(O)CNC(=O)c1cnn2ccc(N3CCC[C@@H]3c3cc(F)ccc3F)nc12 [Example 17, (R)-5-(2-(2,5-difluorophenyl)pyrrolidin-1-yl)-N-(2-hydroxy-2-methylpropyl)pyrazolo[1,5-a]pyrimidine-3-carboxamide] | > 1000 | 2.15 | 
CC1(NC(=O)c2cnn3ccc(N4CCC[C@@H]4c4cncc(F)c4)nc23)CCC1 [Example 102, (R)-5-(2-(5-fluoropyridin-3-yl)pyrrolidin-1-yl)-N-(1-methylcyclobutyl)pyrazolo[1,5-a]pyrimidine-3-carboxamide] | > 1000 | 5.2 | 
CC(C)(C#N)NC(=O)c1cnn2ccc(N3CCC[C@@H]3c3cc(F)ccc3F)nc12 [Example 38, (R)—N-(2-cyanopropan-2-yl)-5-(2-(2,5-difluorophenyl)pyrrolidin-1-yl)pyrazolo[1,5-a]pyrimidine-3-carboxamide] |  | 1.3 | > 1000
Cc1cccnc1NC(=O)c1cnn2ccc(N3CCC[C@@H]3c3cc(F)ccc3F)nc12 [Example 3, (R)-5-(2-(2,5-difluorophenyl)pyrrolidin-1-yl)-N-(3-methylpyridin-2-yl)pyrazolo[1,5-a]pyrimidine-3-carboxamide] | > 1000 | 2.3 | 
COCCOc1ccc(F)cc1[C@H]1CCCN1c1ccn2ncc(C(N)=O)c2n1 [Example 89, (R)-5-(2-(5-fluoro-2-(2-methoxyethoxy)phenyl)pyrrolidin-1-yl)pyrazolo[1,5-a]pyrimidine-3-carboxamide] | > 1000 | 3.6 | 
O=C(c1cnn2ccc(N3CCC[C@@H]3c3cncc(F)c3)nc12)N1CCCC1 [Example 94, (R)-(5-(2-(5-fluoropyridin-3-yl)pyrrolidin-1-yl)pyrazolo[1,5-a]pyrimidin-3-yl)(pyrrolidin-1-yl)methanone] | > 1000 | 568 | 
COc1ncc(F)cc1[C@H]1CCCN1c1ccn2ncc(C(=O)NC(CO)CO)c2n1 [Example 160, (R)-N-(1,3-dihydroxypropan-2-yl)-5-(2-(5-fluoro-2-methoxypyridin-3-yl)pyrrolidin-1-yl)pyrazolo[1,5-a]pyrimidine-3-carboxamide] | > 1000 | 25.6 | 
Cn1cc(F)cc([C@H]2CCCN2c2ccn3ncc(C(=O)NC4(C)CC4)c3n2)c1=O [Example 237, (R)-5-(2-(5-fluoro-1-methyl-2-oxo-1,2-dihydropyridin-3-yl)pyrrolidin-1-yl)-N-(1-methylcyclopropyl)pyrazolo[1,5-a]pyrimidine-3-carboxamide] | 616 | 2.1 | 
O=C(NC1CC1)c1cnn2ccc(N3CCC[C@@H]3c3cc(F)ccc3F)nc12 [Example 13, (R)—N-cyclopropyl-5-(2-(2,5-difluorophenyl)pyrrolidin-1-yl)pyrazolo[1,5-a]pyrimidine-3-carboxamide] | > 1000 | 0.5 | 
Cc1ncc(F)cc1[C@H]1CCCN1c1ccn2ncc(C(=O)NC(C)(C)C)c2n1 [Example 183, (R)-N-tert-butyl-5-(2-(5-fluoro-2-methylpyridin-3-yl)pyrrolidin-1-yl)pyrazolo[1,5-a]pyrimidine-3-carboxamide] | > 1000 | 6.9 | 
O=C(NCCO)c1cnn2ccc(N3CCCC3c3cc(F)ccc3F)nc12 (stereo not shown) [Example 165, 5-(2-(2,5-difluorophenyl)pyrrolidin-1-yl)-N-(2-hydroxyethyl)pyrazolo[1,5-a]pyrimidine-3-carboxamide] | > 1000 | 1.1 | 
O=C(N[C@@H]1C2CC[C@@H](C2)[C@@H]1CO)c1cnn2ccc(N3CCC[C@@H]3c3cncc(F)c3)nc12 [Example 138, 5-((R)-2-(5-fluoropyridin-3-yl)pyrrolidin-1-yl)-N-((2R,3S,4S)-3-(hydroxymethyl)bicyclo[2.2.1]heptan-2-yl)pyrazolo[1,5-a]pyrimidine-3-carboxamide] | > 1000 | 34.8 | 
CC(C)(CO)NC(=O)c1cnn2ccc(N3CCC[C@@H]3c3cc(F)ccc3F)nc12 [Example 8, (R)-5-(2-(2,5-difluorophenyl)pyrrolidin-1-yl)-N-(1-hydroxy-2-methylpropan-2-yl)pyrazolo[1,5-a]pyrimidine-3-carboxamide] | > 1000 | 1.1 | 
O=C(NC1CC1)c1cnn2ccc(N3CCC[C@@H]3c3cc(F)ccc3OCCN3CCOCC3)nc12 [Example 87, (R)—N-cyclopropyl-5-(2-(5-fluoro-2-(2-morpholinoethoxy)phenyl)pyrrolidin-1-yl)pyrazolo[1,5-a]pyrimidine-3-carboxamide] | > 1000 | 16.1 | 
O=C(NOCCO)c1cnn2ccc(N3CCC[C@@H]3c3cc(F)cnc3Cl)nc12 [Example 225, (R)-5-(2-(2-chloro-5-fluoropyridin-3-yl)pyrrolidin-1-yl)-N-(2-hydroxyethoxy)pyrazolo[1,5-a]pyrimidine-3-carboxamide] | > 1000 | 52.4 | 
COc1ncc(F)cc1[C@H]1CCCN1c1ccn2ncc(C(=O)NC[C@@H](C)O)c2n1 [Example 157, 5-((R)-2-(5-fluoro-2-methoxypyridin-3-yl)pyrrolidin-1-yl)-N-((R)-2-hydroxypropyl)pyrazolo[1,5-a]pyrimidine-3-carboxamide] | > 1000 | 2.8 | 
CC1(C)CC[C@H](c2cc(F)ccc2F)N1c1ccn2ncc(C(N)=O)c2n1 [Example 67, (R)-5-(5-(2,5-difluorophenyl)-2,2-dimethylpyrrolidin-1-yl)pyrazolo[1,5-a]pyrimidine-3-carboxamide] | > 1000 | 5.1 | 
NCCCNC(=O)c1cnn2ccc(N3CCC[C@@H]3c3cc(F)c[nH]c3=O)nc12 [Example 142, (R)—N-(3-aminopropyl)-5-(2-(5-fluoro-2-oxo-1,2-dihydropyridin-3-yl)pyrrolidin-1-yl)pyrazolo[1,5-a]pyrimidine-3-carboxamide] | > 1000 | 12.7 | 
O=C(NC1CC1)c1cnn2ccc(N3CCC[C@@H]3c3cc(F)cc(OCCN4CCOCC4)c3)nc12 [Example 85, (R)—N-cyclopropyl-5-(2-(3-fluoro-5-(2-morpholinoethoxy)phenyl)pyrrolidin-1-yl)pyrazolo[1,5-a]pyrimidine-3-carboxamide] | > 1000 | 9.38 | 
COc1ncc(F)cc1[C@H]1CCCN1c1ccn2ncc(C(=O)NC3CCN(S(C)(=O)=O)CC3)c2n1 [Example 162, (R)-5-(2-(5-fluoro-2-methoxypyridin-3-yl)pyrrolidin-1-yl)-N-(1-(methylsulfonyl)piperidin-4-yl)pyrazolo[1,5-a]pyrimidine-3-carboxamide] | 444 | 2.2 | 
O=C(NCCn1ccnc1)c1cnn2ccc(N3CCC[C@@H]3c3cc(F)ccc3F)nc12 [Example 28, (R)—N-(2-(1H-imidazol-1-yl)ethyl)-5-(2-(2,5-difluorophenyl)pyrrolidin-1-yl)pyrazolo[1,5-a]pyrimidine-3-carboxamide] | > 1000 | 2.8 | 
O=C(NCCN1CCOCC1)c1cnn2ccc(N3CCC[C@@H]3c3cc(F)ccc3F)nc12 [Example 4, (R)-5-(2-(2,5-difluorophenyl)pyrrolidin-1-yl)-N-(2-morpholinoethyl)pyrazolo[1,5-a]pyrimidine-3-carboxamide] | > 1000 | 0.95 | 
C[C@H](NC(=O)c1cnn2ccc(N3[C@@H](c4cncc(F)c4)CC[C@@]3(C)CO)nc12)C(F)(F)F [Example 220, 5-((2S,5R)-5-(5-fluoropyridin-3-yl)-2-(hydroxymethyl)-2-methylpyrrolidin-1-yl)-N—((S)-1,1,1-trifluoropropan-2-yl)pyrazolo[1,5-a]pyrimidine-3-carboxamide] |  | 110 | > 1000
COc1ncc(F)cc1[C@H]1CCCN1c1ccn2ncc(C(=O)NC3CC3)c2n1 [Example 79, (R)—N-cyclopropyl-5-(2-(5-fluoro-2-methoxypyridin-3-yl)pyrrolidin-1-yl)pyrazolo[1,5-a]pyrimidine-3-carboxamide] |  | 1.3 | 698
CC1(C)OCC(COc2ccc(F)cc2[C@H]2CCCN2c2ccn3ncc(C(N)=O)c3n2)O1 (stereo partly drawn) [Example 205, 5-((2R)-2-(2-((2,2-dimethyl-1,3-dioxolan-4-yl)methoxy)-5-fluorophenyl)pyrrolidin-1-yl)pyrazolo[1,5-a]pyrimidine-3-carboxamide] | > 1000 | 14.3 | 
CC(NC(=O)c1cnn2ccc(N3CCCC3c3cncc(F)c3)nc12)C1CC1 [Example 113, N-(1-cyclopropylethyl)-5-((R)-2-(5-fluoropyridin-3-yl)pyrrolidin-1-yl)pyrazolo[1,5-a]pyrimidine-3-carboxamide] | > 1000 | 3.2 | 
CC(C)[C@@H](CO)NC(=O)c1cnn2ccc(N3CCC[C@@H]3c3cncc(F)c3)nc12 [Example 121, 5-((R)-2-(5-fluoropyridin-3-yl)pyrrolidin-1-yl)-N-((S)-1-hydroxy-3-methylbutan-2-yl)pyrazolo[1,5-a]pyrimidine-3-carboxamide] | > 1000 | 182 | 
